Measured values reported in the NIST ThermoML archive (doi:10.1021/je049807n).

Legend:
[1] = for surface tension liquid-gas: Pendant drop shape; for mass density: 101.33 kPa, Liquid
[2] = xn = mol fraction of the nth substance listed; details: 298.15 K; for surface tension liquid-gas: Pendant drop shape; for mass density: 101.3 kPa, Liquid

CC(C)CO [2-methyl-1-propanol]
[1], 298.15 K
Details | mass density [kg/m3] | surface tension liquid-gas [mN/m]
– | 797.83 | 22.3

Cc1cc(C)cc(C)c1 [1,3,5-trimethylbenzene] + CC(C)CO
[2]
Details | mass density [kg/m3] | surface tension liquid-gas [mN/m]
x2 = 0.0512 | 858.13 | –
x2 = 0.1028 | 855.39 | 27.65
x2 = 0.1517 | 852.81 | –
x2 = 0.1994 | 850.26 | 27.21
x2 = 0.2514 | 847.49 | –
x2 = 0.3006 | 844.78 | 26.67
x2 = 0.3529 | 841.86 | –
x2 = 0.4019 | 839.03 | 26.09
x2 = 0.4494 | 836.25 | –
x2 = 0.4995 | 833.24 | 25.51
x2 = 0.548 | 830.3 | –
x2 = 0.6002 | 827.02 | 24.88
x2 = 0.6495 | 823.78 | –
x2 = 0.699 | 820.47 | 24.25
x2 = 0.7501 | 816.96 | –
x2 = 0.7998 | 813.38 | 23.61
x2 = 0.8504 | 809.65 | –
x2 = 0.9006 | 805.81 | 22.97
x2 = 0.9485 | 802.06 | –

Cc1cc(C)cc(C)c1 [1,3,5-trimethylbenzene]
[1], 298.15 K
Details | mass density [kg/m3] | surface tension liquid-gas [mN/m]
– | 861.03 | 28.09

Cc1cc(C)cc(C)c1 [1,3,5-trimethylbenzene] + CC(C)(C)O
[2]
Details | mass density [kg/m3] | surface tension liquid-gas [mN/m]
x2 = 0.0502 | 857.2 | –
x2 = 0.1015 | 853.43 | 27.18
x2 = 0.1482 | 850.08 | –
x2 = 0.2007 | 846.28 | 26.24
x2 = 0.2509 | 842.63 | –
x2 = 0.2995 | 839.02 | 25.35
x2 = 0.3484 | 835.31 | –
x2 = 0.3995 | 831.37 | 24.51
x2 = 0.449 | 827.48 | –
x2 = 0.4992 | 823.4 | 23.75
x2 = 0.5483 | 819.43 | –
x2 = 0.6005 | 815.1 | 23.02
x2 = 0.6502 | 810.91 | –
x2 = 0.6987 | 806.81 | 22.32
x2 = 0.75 | 802.48 | –
x2 = 0.7995 | 798.32 | 21.61
x2 = 0.8501 | 793.99 | –
x2 = 0.9002 | 789.58 | 20.86
x2 = 0.9509 | 785.25 | –

Cc1ccc(C)c(C)c1 [1,2,4-trimethylbenzene] + CC(C)(C)O
[2]
Details | mass density [kg/m3] | surface tension liquid-gas [mN/m]
x2 = 0.0498 | 867.42 | –
x2 = 0.1 | 863.45 | 28.12
x2 = 0.1496 | 859.56 | –
x2 = 0.2007 | 855.56 | 27
x2 = 0.2495 | 851.7 | –
x2 = 0.3001 | 847.58 | 25.92
x2 = 0.351 | 843.33 | –
x2 = 0.4002 | 839.16 | 24.93
x2 = 0.4496 | 834.81 | –
x2 = 0.5005 | 830.25 | 24.06
x2 = 0.5494 | 825.78 | –
x2 = 0.6006 | 821.1 | 23.23
x2 = 0.6502 | 816.48 | –
x2 = 0.6991 | 811.94 | 22.46
x2 = 0.7491 | 807.12 | –
x2 = 0.7993 | 802.21 | 21.7
x2 = 0.85 | 797.46 | –
x2 = 0.9003 | 791.86 | 20.96
x2 = 0.9499 | 786.65 | –

CC(C)(C)O [2-methylpropan-2-ol]
[1], 298.15 K
Details | mass density [kg/m3] | surface tension liquid-gas [mN/m]
– | 780.85 | 20.13

Cc1cc(C)cc(C)c1 [1,3,5-trimethylbenzene] + CCCCO
[2]
Details | mass density [kg/m3] | surface tension liquid-gas [mN/m]
x2 = 0.0493 | 858.72 | –
x2 = 0.1006 | 856.4 | 27.92
x2 = 0.1512 | 854.14 | –
x2 = 0.2011 | 851.93 | 27.65
x2 = 0.2514 | 849.67 | –
x2 = 0.3002 | 847.43 | 27.33
x2 = 0.3487 | 845.16 | –
x2 = 0.4003 | 842.68 | 26.91
x2 = 0.4535 | 840.04 | –
x2 = 0.5001 | 837.66 | 26.46
x2 = 0.5484 | 835.11 | –
x2 = 0.6005 | 832.26 | 25.99
x2 = 0.65 | 829.43 | –
x2 = 0.6993 | 826.54 | 25.53
x2 = 0.7497 | 823.44 | –
x2 = 0.7999 | 820.23 | 25.05
x2 = 0.85 | 816.86 | –
x2 = 0.901 | 813.3 | 24.58
x2 = 0.9506 | 809.67 | –

Cc1ccc(C)c(C)c1 [1,2,4-trimethylbenzene] + CCCCO
[2]
Details | mass density [kg/m3] | surface tension liquid-gas [mN/m]
x2 = 0.0499 | 869.1 | –
x2 = 0.1013 | 866.38 | 28.81
x2 = 0.1492 | 863.89 | –
x2 = 0.2002 | 861.22 | 28.42
x2 = 0.2499 | 858.58 | –
x2 = 0.2992 | 855.92 | 28.04
x2 = 0.3503 | 853.09 | –
x2 = 0.4009 | 850.22 | 27.61
x2 = 0.4491 | 847.4 | –
x2 = 0.5012 | 844.25 | 27.15
x2 = 0.5498 | 841.19 | –
x2 = 0.5985 | 838.02 | 26.65
x2 = 0.6501 | 834.53 | –
x2 = 0.6987 | 831.1 | 26.08
x2 = 0.7499 | 827.34 | –
x2 = 0.8001 | 823.46 | 25.49
x2 = 0.8501 | 819.4 | –
x2 = 0.9002 | 815.1 | 24.86
x2 = 0.9503 | 810.56 | –

Cc1ccc(C)c(C)c1 [1,2,4-trimethylbenzene]
[1], 298.15 K
Details | mass density [kg/m3] | surface tension liquid-gas [mN/m]
– | 871.64 | 29.25

Cc1ccc(C)c(C)c1 [1,2,4-trimethylbenzene] + CCC(C)O
[2]
Details | mass density [kg/m3] | surface tension liquid-gas [mN/m]
x2 = 0.0497 | 868.48 | –
x2 = 0.1008 | 865.35 | 28.58
x2 = 0.1486 | 862.53 | –
x2 = 0.201 | 859.43 | 27.94
x2 = 0.2507 | 856.46 | –
x2 = 0.2985 | 853.6 | 27.32
x2 = 0.3492 | 850.47 | –
x2 = 0.4008 | 847.25 | 26.71
x2 = 0.4506 | 844.12 | –
x2 = 0.4997 | 840.93 | 26.15
x2 = 0.5486 | 837.68 | –
x2 = 0.6008 | 834.12 | 25.59
x2 = 0.6505 | 830.64 | –
x2 = 0.6994 | 827.12 | 25.07
x2 = 0.7503 | 823.25 | –
x2 = 0.7999 | 819.39 | 24.56
x2 = 0.8496 | 815.42 | –
x2 = 0.9002 | 811.21 | 24.02
x2 = 0.9489 | 806.96 | –

Cc1ccc(C)c(C)c1 [1,2,4-trimethylbenzene] + CC(C)CO
[2]
Details | mass density [kg/m3] | surface tension liquid-gas [mN/m]
x2 = 0.0509 | 868.47 | –
x2 = 0.1004 | 865.43 | 28.42
x2 = 0.153 | 862.28 | –
x2 = 0.2018 | 859.33 | 27.54
x2 = 0.249 | 856.45 | –
x2 = 0.3002 | 853.23 | 26.7
x2 = 0.3487 | 850.09 | –
x2 = 0.3996 | 846.71 | 25.95
x2 = 0.4494 | 843.33 | –
x2 = 0.4995 | 839.86 | 25.29
x2 = 0.5488 | 836.34 | –
x2 = 0.6002 | 832.59 | 24.72
x2 = 0.6508 | 828.75 | –
x2 = 0.6989 | 824.99 | 24.16
x2 = 0.7484 | 820.99 | –
x2 = 0.8002 | 816.62 | 23.6
x2 = 0.8506 | 812.2 | –
x2 = 0.8984 | 807.85 | 22.98
x2 = 0.9496 | 802.94 | –

Cc1cc(C)cc(C)c1 [1,3,5-trimethylbenzene] + CCC(C)O
[2]
Details | mass density [kg/m3] | surface tension liquid-gas [mN/m]
x2 = 0.0508 | 858.12 | –
x2 = 0.101 | 855.38 | 27.77
x2 = 0.1511 | 852.75 | –
x2 = 0.2007 | 850.14 | 27.36
x2 = 0.25 | 847.61 | –
x2 = 0.2986 | 845.03 | 26.94
x2 = 0.3488 | 842.36 | –
x2 = 0.4007 | 839.55 | 26.47
x2 = 0.4495 | 836.88 | –
x2 = 0.5017 | 833.96 | 25.99
x2 = 0.5484 | 831.33 | –
x2 = 0.6004 | 828.33 | 25.49
x2 = 0.6508 | 825.34 | –
x2 = 0.6991 | 822.4 | 24.98
x2 = 0.7496 | 819.25 | –
x2 = 0.8009 | 816.01 | 24.45
x2 = 0.8504 | 812.75 | –
x2 = 0.9002 | 809.42 | 23.94
x2 = 0.9505 | 805.99 | –

CCC(C)O (configuration not stated) [butan-2-ol]
[1]
Details | mass density [kg/m3] | surface tension liquid-gas [mN/m]
298.15 K | 802.34 | 23.46
303.15 K | – | 22.14

CCCCO [butan-1-ol]
[1], 298.15 K
Details | mass density [kg/m3] | surface tension liquid-gas [mN/m]
– | 805.8 | 24.18
